# “Also recorded” adds a separate entry of the source. Read-outs that look alike come from different tables or passages of the source.
# What was measured:
# [1] = test system: PI3K (p85) from NIH/3T3 cells; test: PI3K activity assay (conversion of PI to PI3P, TLC); format: biochemical
# [2] = test system: PDK-dependent activation of Akt1; test: In vitro PDK-dependent Akt1 phosphorylation and activity assay (immunoprecipitated PDK1 and Akt1, GSK-3 fusion protein substrate); format: biochemical, human (SH-SY5Y, HEK293), mouse (C2C12); details: for IC50: in vitro Aβ conditions; for Ki: monomeric-predominant preparations
# Method: (§1) Akt1 was immunoprecipitated (IP) overnight from 100 μg of the human brain sample or from C2C12 myotubes infected with adenovirus encoding Aβ using a 1:100 dilution of goat anti-Akt1 antibody. The following morning, 40 μl of a 50% slurry of protein G-Agarose (PGA) (Roche Applied Science) was added for an additional 1.5 hours. The beads were washed twice with wash buffer [1× phosphate buffered saline (PBS), 0.5% NP-40, 0.1 mM Na3VO4] and twice with kinase buffer [25 mM Tris (pH 7.5), 2 mM DTT, 0.1 mM Na3VO4, 10 mM MgCl2]. ATP (200 μM) and GSK-3 fusion protein (1 μg/50 μl) were added in the presence of kinase buffer, and the final reaction (50 μl) was incubated 30 minutes at 30° C. The reaction was stopped by adding 40 μl of Laemmli buffer. 20 μl of sample was loaded onto a 10% polyacrylamide gel for fractionation and western detection development.
# Immunoprecipitates (IPs) of PDK1 and Akt were prepared from 100 μg of either SH-SY5Y, C2C12 myotubes or from insulin-treated cultures. ATP (200 μM), GSK-3 fusion protein (1 μg/50 μl) and kinase buffer were added to the reaction. Various Aβ peptides were finally added at 0.01, 0.1, 1, 5, 10, 20 μM. Akt activity level was otherwise determined as above.
# pre-activated Akt1 = target: T1, pre-activated Akt1 (Mus musculus, UniProt P31750); test: In vitro kinase assay on pre-activated (insulin-conditioned) Akt1; format: biochemical, mouse (C2C12 myotubes); details: 10 μM peptide
# T1 construct: Akt1 was immunoprecipitated from control and insulin treated C2C12 myotubes for in vitro kinase assay; endogenous in cells; host or cells: insulin-treated mouse C2C12 myotubes
# Method: as §1
# Variably however, the degree of inhibition sometimes exceeded the baseline activity in the absence of PDK. Thus, it is possible that Aβ may have an additional action to deactivate Akt. […] Insulin stimulated Akt activity in extracts made from C2C12myotube cultures (FIG. 9A, 3rd row, lane 2 vs. 1). […]
# In FIG. 9B Aβ42 (10 μM) and scrambled Aβ42 had no effect on insulin-conditioned Akt1 activity. Protein phosphatase 2A (PP2A; 5 μg/ml) decreased levels of both p-Akt (Ser473) and Akt activity (p-GSK-3 α/β), quantified by densitometry below.
# [3] = FIG. 7A, vs reverse peptide 5 μM
# T1 sequence (P31750 whole entry): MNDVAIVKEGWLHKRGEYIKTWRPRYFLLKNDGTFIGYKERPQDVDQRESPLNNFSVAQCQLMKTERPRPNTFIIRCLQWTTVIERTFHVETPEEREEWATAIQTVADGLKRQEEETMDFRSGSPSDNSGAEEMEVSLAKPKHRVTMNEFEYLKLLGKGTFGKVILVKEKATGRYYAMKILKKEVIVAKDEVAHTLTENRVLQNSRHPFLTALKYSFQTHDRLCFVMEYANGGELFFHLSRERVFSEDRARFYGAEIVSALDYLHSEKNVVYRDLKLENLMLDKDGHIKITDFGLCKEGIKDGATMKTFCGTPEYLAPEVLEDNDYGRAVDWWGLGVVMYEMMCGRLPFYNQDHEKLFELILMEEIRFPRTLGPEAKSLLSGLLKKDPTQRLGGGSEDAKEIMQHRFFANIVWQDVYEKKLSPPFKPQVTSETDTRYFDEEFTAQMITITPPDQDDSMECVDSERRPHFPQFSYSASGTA
substance,measurement,setting,value
"Aβ42: synthetic 42 amino acid β-amyloid peptide, forward sequence, freshly prepared, predominantly monomeric (BioSource)",PI3K activity,[1]; 10 μM peptide,did not; also recorded: no effect
same,PI3K activity,"[1]; dose-response: Aβ1-42 0.05, 0.5, 5 μM, reverse Aβ42-1 5 μM",no effect
same,effect on PDK-stimulated Akt activity (GSK-3 substrate phosphorylation),[2]; 5 μM (or doses up to 5 μM),dramatically inhibited
same,effect on PDK-stimulated Akt activity / Akt phosphorylation,[2]; 10 μM,completely abrogated
same,inhibition of Akt phosphorylation,"[2]; 10 μM, freshly prepared predominantly monomeric peptide",up to 50%
same,effect on PDK-stimulated Akt activity / Akt phosphorylation,"[2]; 10 μM, listed as Aβ",inhibited
same,concentrations that significantly inhibit Akt phosphorylation (activation),[2]; [3],≥ 10 µM
same,concentrations that significantly inhibit the stimulation of Akt activity,[2]; [3],≥ 5 µM
same,"concentration at which Akt activation (pSer473, pThr308) and Akt activity begin to be affected","[2]; SH-SY5Y IP kinases, FIG. 6B",~1 μM
same,IC50,"[2]; FIG. 7A, read-out: PDK-dependent Akt1 phosphorylation (Ki50)",~10000 nM
same,IC50,"[2]; activity assay, FIG. 7A, listed as Aβ, read-out: PDK-dependent Akt1 activation (Ki50)",~1000 nM
same,IC50,"[2]; activity assay, FIG. 7A, read-out: PDK-dependent Akt1 activation (Ki50)",1000 nM
same,Ki,[2]; read-out: Ki in activity assays,~2 µM
same,Ki,[2]; read-out: Ki in western blots of p-Akt levels,~10 µM
same,PDK stimulation of Akt activity after preincubation and washout,"[2]; preincubation of both IP kinases, washout before kinase reaction",no inhibitory effect
same,insulin-conditioned Akt1 activity and p-Ser473 levels,pre-activated Akt1,no effect
